Measurements as given in PubChem BioAssay (NCI).
Where “and” joins values, the source holds several entries; their conditions need not be identical. Identical values can stand only once.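 In this assay, cells in 96-well plates receive the compound at five concentrations for 48 hours. Endpoints are linearly interpolated between the surrounding concentrations. Here, GI50 denotes the concentration required for 50% inhibition of growth. TGI: concentration producing complete growth inhibition.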

Assays:
Assay in all cases: inhibition of tumour cell growth, NCI panel, 48 h
A498 renal = tested on: A498 renal
HCT-116 colon = tested on: HCT-116 colon
HL-60(TB) leukemia = tested on: HL-60(TB) leukemia
IGROV1 ovarian = tested on: IGROV1 ovarian
OVCAR-3 ovarian = tested on: OVCAR-3 ovarian
OVCAR-4 ovarian = tested on: OVCAR-4 ovarian
OVCAR-5 ovarian = tested on: OVCAR-5 ovarian
SNB-75 CNS = tested on: SNB-75 CNS
TK-10 renal = tested on: TK-10 renal
UACC-62 melanoma = tested on: UACC-62 melanoma

Row | Structure (SMILES) | GI50 (A498 renal) [µM] | TGI (A498 renal) [µM] | GI50 (HCT-116 colon) [µM] | TGI (HCT-116 colon) [µM] | GI50 (HL-60(TB) leukemia) [µM] | TGI (HL-60(TB) leukemia) [µM] | GI50 (IGROV1 ovarian) [µM] | TGI (IGROV1 ovarian) [µM] | GI50 (OVCAR-3 ovarian) [µM] | TGI (OVCAR-3 ovarian) [µM] | GI50 (OVCAR-4 ovarian) [µM] | TGI (OVCAR-4 ovarian) [µM] | GI50 (OVCAR-5 ovarian) [µM] | TGI (OVCAR-5 ovarian) [µM] | GI50 (SNB-75 CNS) [µM] | TGI (SNB-75 CNS) | GI50 (TK-10 renal) [µM] | TGI (TK-10 renal) [µM] | GI50 (UACC-62 melanoma) [µM] | TGI (UACC-62 melanoma)
1 | [Cu+2].[Cu+2].[O-]c1ccccc1C=Nc1ccccc1[O-].[O-]c1ccccc1C=Nc1ccccc1[O-] | 14.4 | 28.1 | 2.47 | 6.55 | 2.52 | 7.24 | 3.33 | 12.2 | 5.56 | 15.8 | 2.6 | 8.23 | 17.7 | 32.6 | 10.2 | 21.8 µM | 18.3 | 32.3 | 3.55 | 14 µM
2 | Cc1ccc(NS(=O)(=O)c2ccc(-c3cnc(C4CC4)o3)cc2)cc1 | 2.05 | 6.83 | 2.49 | 15.2 | 2.47 | 9.71 | 3.78 | 17.3 | 2.1 | 6.13 | 3.87 | 17.6 | 9.28 | 22.6 | 1.13 | 4.25 µM | 9.96 | 22.1 | 3.06 | 14.9 µM
3 | CS(=O)(=O)C1S(=O)(=O)OCCOS1(=O)=O | – | > 100 | – | > 100 | – | > 100 | – | > 100 | – | > 100 | – | > 100 | – | > 100 | – | > 100 µM | – | > 100 | – | > 100 µM
4 | CCOc1ccc(NC(=O)Nc2cc(C(C)C)ccc2C)cc1 | 3.65 | 18.6 | 5.73 | 16.1 | > 57.9 | > 100 | 6.37 | 15.7 | 5.33 | 13.6 | 3.33 | 11.5 | 11.9 | > 76 | 2.82 | 10.2 µM | 2.21 | 6.61 | 16.2 | > 89.8 µM
5 | O=C(O)CSc1n[nH]c(/C=C/c2ccccc2)n1 | – | > 100 | – | > 100 | – | > 100 | – | > 100 | – | > 100 | – | > 100 | – | > 100 | – | > 100 µM | – | > 100 | – | > 100 µM
6 | COC(=O)N1[C@H]2Cc3c(OC)c(C)c(OC)c(OC)c3[C@@H]1/C(=C\c1cc(OC)c(OC)c(C)c1OC)N(Cc1ccccc1)C2=O | – | > 100 | – | > 100 | – | 30.2 | – | > 100 | – | > 100 | – | > 100 | – | > 100 | – | > 100 µM | – | > 100 | – | > 100 µM
7 | Cc1cc(N(CCCl)CCCl)ccc1C=Nc1cccnc1 | 0.237 | 0.833 | 22.7 | > 100 | 1.58 | 30 | 4.97 | > 84.1 | 5.33 | 31.7 | 22.4 | > 100 | 1.86 | 15.9 | 11.5 | > 100 µM | 10.4 | > 66 | 1.59 | 16.1 µM
8 | COc1ccccc1-c1cc2c3c(nc4ccccc42)C(=O)c2cccnc2-c3n1 | 18.9 | 47.4 | 4.89 | 14.6 | > 100 | > 100 | 3.78 | 18.1 | 1.56 | > 37.5 | 13.5 | 38.7 | 15 | 34 | 8.89 | 22.6 µM | 14.8 | 29.6 | 16.4 | 36.7 µM
9 | COC(=O)C(=O)C(C(=O)C(=O)Nc1ccccc1C(=O)OC)c1nc2ccc(C(=O)c3ccccc3)cc2[nH]c1=O (configuration not stated) | – | > 100 | – | > 100 | – | > 100 | – | > 100 | – | > 100 | – | 88.8 | – | > 100 | – | > 100 µM | – | > 100 | – | > 100 µM
10 | O=C(Cn1ccnc1[N+](=O)[O-])N(CCO)CCO | > 250 | > 1250 | > 1250 | > 1250 | > 1250 | > 1250 | > 1250 | > 1250 | > 312 | > 828 | > 1250 | > 1250 | > 1250 | > 1250 | 182 | 250 µM and > 1250 µM | – | > 250 | > 943 | > 250 µM and 1240 µM
11 | C=CC1CC12C(=O)C1OC2(C)C2C(=O)c3ccccc3C(=O)C12 (configuration not stated) | > 100 | > 100 | > 100 | > 100 | 0.691 | 2.59 | > 69.3 | > 100 | 13.9 | 60.5 | 31.5 | > 100 | > 54.7 | > 88.5 | > 37.4 | > 76.1 µM | > 49.9 | > 100 | 35.1 | > 100 µM
12 | CC(C)(C)c1nc2c(o1)C(=Nc1ccccc1)c1ccccc1C2=O | – | 36.4 | – | 12.8 | – | 16.6 | – | 33.6 | – | 6.24 | – | 10.2 | – | 29.4 | – | 13.6 µM | – | 59.6 | – | 5.08 µM
13 | CCc1nc2c(O)ccc(O)c2nc1C | – | 35.2 | – | 20.9 | – | > 21.7 | – | 33.1 | – | 28.5 | – | 17.3 | – | 33.5 | – | 37.6 µM | – | 37.1 | – | 27.5 µM
14 | COc1ccc2c(c1)Oc1nc(N)c(C#N)c(N)c1C2Sc1ccc(SC)cc1 (configuration not stated) | 1.77 | 3.3 | 1.76 | 3.24 | 1.99 | 5.49 | 1.73 | 3.78 | 1.75 | 3.19 | 1.64 | 3.07 | 1.8 | 3.55 | 1.46 | 2.8 µM | 1.77 | 3.17 | 1.81 | 3.33 µM
15 | COc1cc(OC)c(-c2cc(=O)c3c(OC)c(OC)c(OC)c(OC)c3o2)cc1OC | – | > 100 | – | > 100 | – | > 64.6 | – | > 100 | – | > 100 | – | > 100 | – | > 100 | – | > 73.9 µM | – | > 100 | – | > 88.5 µM
16 | Cc1nc2sc(C(=O)Nc3cccc4ccccc34)c(N)c2cc1C(C)O (configuration not stated) | 0.0756 | 1.02 | 0.233 | > 50 | 0.124 | 0.355 | 0.308 | > 50 | 0.155 | – | 1.51 | > 50 | 1.5 | > 50 | 0.119 | > 50 µM | 32.2 | > 50 | 0.243 | > 50 µM
17 | COc1ccc(-c2cc3cccc(OC)c3c(=O)o2)cc1OC | 81.7 | > 100 | 29.6 | > 100 | 76.2 | > 100 | > 100 | > 100 | 43.4 | > 100 | > 100 | > 100 | 85.5 | > 100 | 53.1 | > 100 µM | > 100 | > 100 | 0.661 | > 100 µM
18 | COC(=O)c1cnc2nc(N3CCOCC3)[nH]n2c1=O | – | > 100 | – | > 100 | – | > 100 | – | > 100 | – | > 100 | – | > 100 | – | > 100 | – | > 100 µM | – | > 100 | – | > 100 µM
19 | O=C1C(=O)c2ccc(Br)cc2-c2cc(Br)ccc21 | > 28.1 | > 100 | 0.587 | 1.43 | 0.607 | 1.71 | 6.57 | 29.5 | 0.619 | 1.36 | 0.274 | 0.696 | > 41.6 | > 62.2 | > 54.6 | > 100 µM | 22.7 | > 100 | 15.2 | > 64.9 µM
20 | CCCOC(=O)N[C@H]1CCc2c(Br)c(OC)c(OC)c(OC)c2-c2ccc(SC)c(=O)cc21 | < 0.0135 | 0.0509 | 0.0248 | 5.07 | 0.0245 | 0.0784 | 0.0377 | > 46.2 | 0.0319 | 10.4 | 0.158 | > 100 | 0.0501 | 34.5 | 0.0262 | 25.5 µM | 4.67 | > 76.6 | 0.0365 | 13.2 µM
21 | O=[N+]([O-])c1ccccc1S(=O)c1ccccc1 (configuration not stated) | – | > 100 | – | > 100 | – | > 100 | – | > 100 | – | > 100 | – | > 100 | – | > 100 | – | 58.7 µM | – | > 100 | – | > 100 µM
22 | COc1cc2c(cc1O)[C@H](C)C(c1ccc(Cl)cc1)O2 (some centres not stated) | – | > 100 | – | 30.1 | – | 35.6 | – | > 100 | – | > 100 | – | > 100 | – | > 100 | – | 43.3 µM | – | 78.8 | – | 92.4 µM
23 | O=C(c1ccccc1)c1ccc(-c2ccc(O)cc2)cc1 | 13 | > 58.9 | 8.42 | 44.7 | 1.89 | 11.1 | 3.69 | 22.7 | 7.59 | 31.6 | 5.87 | > 100 | 31 | > 100 | 4.22 | 34.5 µM | 8.43 | 50.7 | 0.687 | 33.7 µM
24 | COc1ccc2c(c1)O/C(=C\c1cccc(OCC(=O)Nc3nc4ccccc4s3)c1)C2=O | 10.1 | > 93.3 | 24.1 | > 100 | 4.68 | > 63 | 0.121 | 0.303 | 3.16 | 9.56 | 22.3 | > 100 | > 84.3 | > 100 | – | > 24 µM | > 54.3 | > 100 | 23.5 | > 100 µM
25 | CC1(C)CCC(S(=O)(=O)c2ccc3c(c2)/C(=N\O)c2cc(S(=O)(=O)N4CCC(O)(c5cccc(C(F)(F)F)c5)CC4)ccc2-3)CC1 | 1.69 | 3.85 | 0.0163 | 0.0327 | 0.0203 | 0.0681 | 0.0491 | 1.07 | 0.0211 | 0.0442 | 0.0251 | 0.0744 | 0.0317 | 0.148 | 0.0158 | 0.0349 µM | 0.0441 | 0.393 | 0.0196 | 0.0351 µM
26 | CN(C(=O)c1ccc(F)cc1C(F)(F)F)C1CCN(c2nnc(-c3ccnn3C)c3ccccc23)CC1 | 54.8 | > 100 | 40.8 | > 100 | 27.3 | > 84.1 | 57.3 | > 100 | 38.1 | > 100 | 20.9 | > 100 | > 100 | > 100 | 14.5 | > 100 µM | 65.6 | > 100 | 28.9 | > 100 µM
27 | O=C(CC12CC3CC(CC(C3)C1)C2)NCCOCCOCCNC(=O)c1cc2c(o1)C(=O)c1ccccc1C2=O | 1.6 | 3.16 | 1.58 | 4.96 | 1.22 | 4.61 | 1.41 | 3.21 | 0.243 | 0.72 | 0.839 | 2.08 | 1.69 | 3.09 | 1.56 | 2.9 µM | 3.06 | 5.27 | 0.271 | 0.748 µM
28 | COc1ccc(C(CC(=O)c2ccccc2)C(C(=O)c2ccccc2)C(c2ccc(OC)cc2)C2C(=O)NC(=O)NC2=O)cc1 (configuration not stated) | 11 | 43.5 | 14.2 | 35.9 | 41.2 | > 100 | 13.2 | > 100 | 11.9 | 44.4 | 26 | > 100 | 17.4 | 56.8 | 32.6 | > 100 µM | 43.2 | > 100 | 16.2 | 48.9 µM
